Data: ChEMBL document CHEMBL1128215, “Introduction of a conformational switching element on a pyrrolidine ring. Synthesis and evaluation of (R*,R*)-(+/-)-methyl 3-acetyl-4-[3- (cyclopentyloxy)-4-methoxyphenyl]-3-methyl-1-pyrrolidinecarboxylate, a potent and selective inhibitor of cAMP-specific phosphodiesterase” (J Med Chem, 1995)

What was measured:
[1] = biological target: Phosphodiesterase 4 (Homo sapiens, UniProt P27815+Q08499+Q07343+Q08493); assay: Inhibition of cAMP hydrolysis by human Phosphodiesterase 4; assay type: protein assay
[2] = biological target: Phosphodiesterase 3 (Homo sapiens, UniProt Q14432+Q13370); assay: Inhibition of Phosphodiesterase 3 from human pulmonary artery; assay type: tissue-based
[3] = biological target: Phosphodiesterase 6; assay: Inhibition of Phosphodiesterase 6 from bovine retina; assay type: protein assay, Bos taurus
[4] = biological target: cGMP-specific 3',5'-cyclic phosphodiesterase (Homo sapiens, UniProt O76074); assay: Inhibition of Phosphodiesterase 5 isolated from human trachea; assay type: tissue-based
[5] = biological target: High affinity 3',5'-cyclic-AMP phosphodiesterase 7A (Homo sapiens, UniProt Q13946); assay: Inhibition of human Phosphodiesterase 7
Sequence of High affinity 3',5'-cyclic-AMP phosphodiesterase 7A (Q13946 whole entry): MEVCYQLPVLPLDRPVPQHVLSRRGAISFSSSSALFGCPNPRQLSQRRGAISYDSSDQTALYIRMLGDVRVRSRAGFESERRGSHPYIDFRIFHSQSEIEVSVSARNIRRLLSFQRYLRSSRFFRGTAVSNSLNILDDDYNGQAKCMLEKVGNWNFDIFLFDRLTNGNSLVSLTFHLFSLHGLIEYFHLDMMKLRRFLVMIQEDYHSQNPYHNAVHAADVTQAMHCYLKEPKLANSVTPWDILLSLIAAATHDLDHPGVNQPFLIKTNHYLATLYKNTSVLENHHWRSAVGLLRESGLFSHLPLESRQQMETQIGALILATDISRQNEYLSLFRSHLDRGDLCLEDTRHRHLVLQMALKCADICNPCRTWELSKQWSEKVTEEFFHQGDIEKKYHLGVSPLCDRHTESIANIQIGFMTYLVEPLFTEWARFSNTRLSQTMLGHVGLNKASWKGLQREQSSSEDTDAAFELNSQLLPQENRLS

[6] = biological target: Phosphodiesterase 1 (Bos taurus, UniProt Q01061+P14100); assay: Inhibition of Phosphodiesterase 1 from bovine aorta; assay type: protein assay
[7] = biological target: T1, cGMP-dependent 3',5'-cyclic phosphodiesterase (Bos taurus, UniProt P14099); assay: Inhibition of bovine Phosphodiesterase 2
T1 sequence (P14099 whole entry): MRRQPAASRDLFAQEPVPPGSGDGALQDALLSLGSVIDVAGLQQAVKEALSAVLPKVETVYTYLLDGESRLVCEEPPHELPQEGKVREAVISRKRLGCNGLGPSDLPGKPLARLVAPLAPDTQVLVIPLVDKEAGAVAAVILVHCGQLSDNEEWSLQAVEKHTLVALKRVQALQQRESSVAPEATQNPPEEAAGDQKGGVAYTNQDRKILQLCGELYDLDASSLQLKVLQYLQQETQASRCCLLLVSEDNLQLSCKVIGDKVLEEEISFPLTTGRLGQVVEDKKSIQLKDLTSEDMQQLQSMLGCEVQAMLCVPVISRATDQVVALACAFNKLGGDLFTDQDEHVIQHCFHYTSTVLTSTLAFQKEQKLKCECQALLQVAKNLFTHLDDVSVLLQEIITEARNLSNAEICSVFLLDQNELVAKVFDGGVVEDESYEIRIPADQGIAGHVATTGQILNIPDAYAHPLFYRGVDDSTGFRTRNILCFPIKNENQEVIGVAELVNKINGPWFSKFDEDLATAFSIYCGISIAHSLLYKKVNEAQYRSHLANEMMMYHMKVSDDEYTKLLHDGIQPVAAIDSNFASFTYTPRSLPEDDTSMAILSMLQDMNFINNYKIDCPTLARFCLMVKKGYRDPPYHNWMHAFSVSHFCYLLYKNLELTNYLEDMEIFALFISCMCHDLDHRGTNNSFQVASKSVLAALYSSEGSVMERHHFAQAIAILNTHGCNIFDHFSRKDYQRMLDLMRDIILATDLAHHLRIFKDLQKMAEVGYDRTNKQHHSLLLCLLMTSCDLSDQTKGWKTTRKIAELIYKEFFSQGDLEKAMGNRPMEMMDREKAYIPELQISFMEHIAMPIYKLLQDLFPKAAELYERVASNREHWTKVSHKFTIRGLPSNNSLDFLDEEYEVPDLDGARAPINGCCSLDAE

| SMILES | Ki [1] | further results |
| --- | --- | --- |
| COC(=O)[C@@H]1CN(C(=O)OC)C[C@H]1c1ccc(OC)c(OC2CCCC2)c1 | 159 nM |  |
| COC(=O)N1C[C@@H](c2ccc(OC)c(OC3CCCC3)c2)[C@](C)(C(=O)OC)C1 | 3 nM |  |
| CCOC(=O)[C@]1(C)CN(C(=O)OC)C[C@H]1c1ccc(OC)c(OC2CCCC2)c1 | 86 nM |  |
| COC(=O)N1CC[C@H](c2ccc(OC)c(OC3CCCC3)c2)C1 | 110 nM |  |
| CCOC(=O)[C@@H]1CN(C(=O)OC)C[C@H]1c1ccc(OC)c(OC2CCCC2)c1 | 550 nM |  |
| CC[C@@]1(C(C)=O)CN(C(=O)OC)C[C@H]1c1ccc(OC)c(OC2CCCC2)c1 | 10 nM |  |
| COC(=O)N1C[C@@H](CO)[C@H](c2ccc(OC)c(OC3CCCC3)c2)C1 | 224 nM |  |
| COC(=O)N1C[C@H](C)[C@H](c2ccc(OC)c(OC3CCCC3)c2)C1 | 100 nM |  |
| COC(=O)N1C[C@@H](c2ccc(OC)c(OC3CCCC3)c2)[C@](C)(C(C)=O)C1 | 1 nM | Ki [2]: > 100000 nM; Ki [3]: > 100000 nM; Ki [4]: > 100000 nM; Ki [5]: 7900 nM; Ki [6]: > 100000 nM; Ki [7]: > 100000 nM |
| COC(=O)N1C[C@@H](C(C)=O)[C@H](c2ccc(OC)c(OC3CCCC3)c2)C1 | 33 nM |  |
| COC(=O)N1C[C@@H](c2ccc(OC)c(OC3CCCC3)c2)[C@](C)(CO)C1 | 37 nM |  |
